# Test results published in patent US7635675B2, “Micro-particle fatty acid salt solid dosage formulations for therapeutic agents” (Biocon Limited, priority 2003, dated 2009).
# Test: USP dissolution test of fatty acid salts released from tablets and capsules
# Type: physicochemical
# Settings: tablet formulations where the fatty acids have been milled to optimum particle size (FIGS. 3-8); USP apparatus 2, 50 rpm, 500 mL pH 7.4 phosphate buffer
# Protocol: The formulations of the invention preferably have a high dissolution rate. The dissolution rate can be determined as follows: Use USP dissolution apparatus 2 (paddles) at 50 rpm with 500 mL of pH 7.4 phosphate buffer.
# USP 26, <711> DISSOLUTION Test Description:
# This test is provided to determine compliance with the dissolution requirements where stated in the individual monograph for a tablet or capsule dosage form. Of the types of apparatus described therein, use apparatus 2. […] Where water or a medium with a pH of less than 6.8 is specified as the Medium in the individual monograph, the same Medium specified may be used with the addition of purified pepsin that results in an activity of 750,000 Units or less per 1000 mL. For media with a pH of 6.8 or greater, pancreatin can be added to produce not more than 1750 USP Units of protease activity per 1000 mL. USP Reference Standards <11> (Dissolution Calibrator, Disintegrating). (Dissolution Calibrator, nondisintegrating) are used to calibrate the equipment.
# Apparatus 2: The assembly consists of the following: a covered vessel made of glass or other inert, transparent material; a motor; a metallic drive shaft; and a stirring element. The vessel is partially immersed in a suitable water bath of any convenient size or placed in a heating jacket. […]
structure (smiles),measurement,value
CCCCCCCCCC(=O)[O-].[Na+] [capric acid sodium salt],dissolution (release) of fatty acid salt from tablet formulations,readily released
CCCCCCCCCCCC(=O)[O-].[Na+] [lauric acid sodium salt],dissolution (release) of fatty acid salt from tablet formulations,readily released
